For assay [1], the system named is A1AT+ hepatocytes. Put plainly: Inhibition curve on hESC-derived hepatocytes. The assay is classed as cell-based, human. The note with it: cell survival rate, 4 days, n=3. The method, then:
hESCs-derived INS^+ cells, MSCs[43], neurons, and hepatocytes[44] were derived based on the reported protocols and re-plated on 96-well plates with Accutase digestion. Cardiomyocytes (CMs) were differentiated from H9-MYH6: mCherry reporter line, based on the reported protocol. After overnight incubation, cells were treated with DMSO or different doses of hit compounds for 4 days. After fixation, the cells were stained with markers for each cell type. DAPI was used to stain cell nuclei. Plates were analyzed by ImageXpress^MICRO Automated High-Content Analysis System.
Supplementary Figure 4. Assessment of the toxic effect of propargite on different type […]
(a) Flow cytometry char acterization of CD29+ and CD73+ mesenchymal stem cells (MSCs) derived from H1 hESCs. (b-c) microscope image (b) and flow cytometry (c) characterization of cardiomyocytes expressing MYH6+ derived from a MYH6:mCherry reporter hESC line. (d-e) Immunocytochemistry characterization of MAP2+/TUJ1+ and HuC/D+/MAP2+ neurons (d) and A1AT+/ASGPR1+ hepatocytes (e) derived from H1 hESCs. All the cells were counterstained by DAPI (blue). Scale bars, 100 µm. (f) Inhibition curve of propargite on pancreatic β-like cells, MSCs, cardiomyocytes, neurons, and hepatocytes derived from hESCs, and BJ-fibroblasts (n=3). Values presented as mean±S.D. […]

Assay [2] concerns MIN6 cells. Put plainly: Ki67 proliferation staining of MIN6 cells. The note with it: 1.6 μM propargite vs DMSO, 4 days. The assay is classed as cell-based, mouse. As for the experimental part: Cells were fixed with 10% (v/v) formalin for 20 min at room temperature (RT) and blocked in a solution of Mg^2+- and Ca^2+-free PBS containing 5% horse serum and 0.3% Triton-X for 1 h at room temperature and followed by incubation with primary antibody at 4 °C overnight. The following primary antibodies and dilutions have been used in this study: goat anti-SOX17 (1:500, R&D system, AF1924), rabbit anti-FOXA2 (1:500, Upstate, 07-633), goat anti-PDX1 (1:500, R&D system, AF2419), mouse anti-NKX6.1 (1:100; BCBC, Ab2024), guinea pig anti-INS (1:1000, Dako, A0564), guinea pig anti-GLUCAGON (1:500, Linco, 4031), mouse anti-Ki67 (1:100, Life technologies, 556003), mouse anti-AMYLASE (1:100, Santa Cruz, sc-46657), rabbit anti-Active Caspase-3 (1:500, BD Bioscience, 559565), mouse anti-Troponin T (1:500, Thermo Scientific, MA5-12960), mouse anti-Actin, Cardiac (1:300, Sigma, A9357), rabbit anti-TUJ1 (1:500, Covance, MRB-435P), Chicken anti-MAP2 (1:1000, Abcam, Ab5392), mouse anti-HuC/D (1:500, Invitrogen, A-21271), mouse anti-MAP2 (1:1500, Sigma, M1406), rabbit anti-TH (1:500, Pel freeze, P40101-0), rat-anti-CTIP2 (1:500, Abcam, ab18465), goat anti-FOXA2 (1:200, R&D, 463783). Donkey anti-guinea pig, mouse, goat, rabbit or chicken secondary antibodies conjugated with Alexa-Fluor-488, Alexa-Fluor-594 or Alexa-Fluor-647 fluorophore (1:500, Life technologies) were used. […]

Assay [3] concerns primary human islets. Put plainly: Primary human islets, INS and propidium iodide staining. The assay is classed as cell-based. As to conditions: 4 days treatment. The text has this: Fig. 1 A high-content screen identifies propargite as a compound that induces pancreatic β-cell death. a Scheme of pancreatic β-cell differentiation and high-content chemical screen. b Chemical structure of two hit compounds: Propargite and Vacor. c Inhibitory curve and IC50 of propargite or Vacor on INS^+ and INS^− cells (n = 8). d, e Immunocytochemistry analysis (d) and survival rate (e) of H1-derived glucose-responding INS^+ and INS^− cells treated with different doses of propargite (n = 8). Pancreatic β-like cells were stained for INS (green) and all cells were counterstained by DAPI (blue). Scale bars, 100 μm. The survival rate was calculated by dividing the average number of cells in propargite-treated conditions by the average number of cells in the DMSO control. f, g Representative live images (f) and fold-change (g) of INS^w/GFP HES3-derived INS-GFP^+ cells treated with 1.6 μM propargite or DMSO control at different time points compared to initial time 0 (n = 3). Scale bars, 100 μm. h, i, j Representative images (h) and cell survival rate (i) or cell death rate (j) of DMSO or propargite-treated human primary islets (n = 3). Pancreatic β-cells were stained with the INS antibody (green) and dead cells were stained with propidium iodide (PI) (red). Scale bars, 200 μm. Scale bars for higher resolution (Zoom) images, […]. Pancreatic β-cell death rate was calculated by defining percentages of INS^+ PI^+ cells in INS^+ cells, and non-β-cell death rate was calculated by percentages of INS^−PI^+ cells in INS^− cells.

In the case of “2-(4-tert-butylphenoxy)-cyclohexyl prop-2-yne-1-sulfonate [propargite]”, the IC50 in assay [1] turned out to be 13 µM. In addition, in assay [2], the “percentage of Ki67+/INS+ cells” value was “No significant difference”. Moreover, in assay [3], the “number of INS+ cells in primary human islets” value is given as “decreased” and the “percentage of PI+/INS+ cells in INS+ cells” value was “increased percentage”.

The values are drawn from article PMC6240096, “A hPSC-based platform to discover gene-environment interactions that impact human β-cell and dopamine neuron survival” (Nature Communications, 2018).
